Seven molecules from doi:10.1101/2024.08.19.608619, “Discovery of potent SARS-CoV-2 nsp3 macrodomain inhibitors uncovers lack of translation to cellular antiviral response” (bioRxiv, 2024) can be followed below.

Values after ≈ are worked out from the molar mass of the structure shown. Values joined by “and” are separate entries in the source; they are usually repeats but may differ in a detail not shown here. Equal entries are not always repeated. Where two headings read alike, the source gives them in different places.

The nature of series [1]: Permeability Papp (AB) MDR1/MDCKII. Conditions: for papp_a_to_b_mean: A to B.
Series [2] is described as follows: In vitro kinetic solubility. The note with it: In vitro kinetic solubility, ph 7.4.
Series [3] can be described thus: Hepatic microsomal stability, MLM. In kind it is in vitro ADME.
Series [4] can be described thus: LogD. Conditions: pH 7.4; In vitro LogD.
A short description of series [5]: in vitro. Conditions: human, hela-ace2 cells, 50.0.
Series [6] is described as follows: Hepatic microsomal stability, HLM. The note with it: In vitro human liver microsomal stability; for perc_remaining_no_cofactor: no cofactor. In kind it is in vitro ADME, human. (Liver microsomes are vesicles of endoplasmic reticulum, rich in cytochrome P450 enzymes.)
Series [7] concerns SARS-CoV-2, isolate USA-WA1/2020. As to the kind of experiment: microbe, parasite or virus in culture. Format: cell-based. The note with it: HeLa-ACE2 SARS-CoV-2 antiviral effect without P-gp inhibitor; for perc_max_measured: maximum measured response of dose series; for perc_min_measured: minimum measured response of dose series; for EC50: read-out: ec50; for EC90: read-out: ec90.

Series [8] relates to HeLa-ACE2 cells. Conditions: for perc_max_measured: highest measured response of the dose series; for perc_min_measured: lowest measured response of the dose series.
The mark [9] stands for this setting: In vitro MDR1-MDCKII permeability, no inhibitor.
[10] abbreviates: In vitro MDR1-MDCKII permeability, recovery A to B, no inhibitor.
[11] abbreviates: In vitro mouse liver microsomal stability.
The mark [12] stands for this setting: In vitro mouse liver microsomal stability, no cofactor.
[13] abbreviates: protocol HeLa-ACE2 cytotoxicity.
[14] abbreviates: In vitro MDR1-MDCKII permeability, mean.
Setting [15] is: In vitro MDR1-MDCKII permeability, recovery A to B, mean.
Where [16] appears, read: In vitro mouse liver microsomal stability; no cofactor.

As to `CC(C)[C@H](Nc1ncnc2[nH]c(-c3cnn(C)c3)cc12)c1ccc2c(c1)S(=O)(=O)CCC2` (single isomer, unassigned) [ASAP-0012327], the papp_a_to_b_mean in series [1] (setting [9]) was determined as 1.18 ×10⁻⁶ cm/s. For the same molecule, the perc_recovery_a_to_b_mean in series [1] (setting [10]) turned out to be 65.0%. This molecule also returned a solubility_mean in series [2] of 111 µM (≈ 50 µg/mL). Further, in series [3] (setting [11]), the clint was found to be 255.0 µL/min/mg, the perc_remaining came out at 1.0% and the t_half amounted to 6.5 min. Further, the perc_remaining_no_cofactor in series [3] (setting [12]) stood at 98.0%. The same molecule registered a logd in series [4] of 2.9. This molecule displayed a CC50 at 24 h in series [5] of over 20 µM. In addition, in series [6], the clint came to 169.0 µL/min/mg, the perc_remaining is on record as 7.0%, the t_half amounted to 9.9 min and the perc_remaining_no_cofactor is recorded as 95.0%. In series [7], the perc_max_measured is listed as 111.115%, the perc_min_measured amounted to 52.798%, the EC50 is over 20 µM and the EC90 was over 20 µM. In series [8] (HeLa-ACE2 cytotoxicity), this molecule displayed a CC50 of over 20 µM, a cc10 of over 20.0 µM, a perc_max_measured of 100.334% and a perc_min_measured of 94.258%.
With `CC(C)(C)[C@H](Nc1ncnc2[nH]c(-c3cnn(CC(N)=O)c3)cc12)c1ccc2c(c1)OCCO2` (single isomer, unassigned) [ASAP-0012330], the papp_a_to_b_mean in series [1] (setting [9]) came to 0.364 ×10⁻⁶ cm/s. Moreover, in series [1] (setting [10]), the perc_recovery_a_to_b_mean came to 67.4%. The solubility_mean in series [2] came out at 89 µM (≈ 41.1 µg/mL). In series [3] (setting [11]), this molecule showed a clint of 44.0 µL/min/mg, a perc_remaining of 48.0% and a t_half of 38.3 min. Moreover, in series [3] (setting [12]), the perc_remaining_no_cofactor is 105.0%. Further, in series [4], the logd is given as 3.0. For the same molecule, the CC50 at 24 h in series [5] was over 20 µM. For the same molecule, in series [6], the clint was determined as 153.0 µL/min/mg, the perc_remaining is 9.0%, the t_half was determined as 10.9 min and the perc_remaining_no_cofactor is given as 100.0%. Further, in series [7], the perc_max_measured was 108.484%, the perc_min_measured is 91.129%, the EC50 is over 20 µM and the EC90 is over 20 µM. In series [8] (HeLa-ACE2 cytotoxicity), this molecule registered a CC50 of over 20 µM, a cc10 of over 20.0 µM, a perc_max_measured of 98.779% and a perc_min_measured of 88.572%.
With `CNC(=O)c1cccc(-c2cc3c(N[C@H](c4ccc5c(c4)S(=O)(=O)CCC5)C(C)C)ncnc3[nH]2)c1` (single isomer, unassigned) [ASAP-0012338], the papp_a_to_b_mean in series [1] (setting [9]) amounted to 0.502 ×10⁻⁶ cm/s. This molecule also yielded a perc_recovery_a_to_b_mean in series [1] (setting [10]) of 61.5%. Moreover, the solubility_mean in series [2] came to 13 µM (≈ 6.55 µg/mL). In series [3] (setting [11]), this molecule came in with a clint of 197.0 µL/min/mg, a perc_remaining of 4.0% and a t_half of 8.5 min. Besides, in series [3] (setting [12]), the perc_remaining_no_cofactor is on record as 106.0%. In series [4], this molecule gave a logd of 3.8. The 50% cytotoxic concentration (CC50) at 24 h in series [5] was over 20 µM. In addition, in series [6], the clint was found to be 746.0 µL/min/mg, the perc_remaining is on record as 0.0%, the t_half is reported as 2.2 min and the perc_remaining_no_cofactor is recorded as 99.0%. Besides, in series [7], the perc_max_measured was 112.086%, the perc_min_measured came to 84.591%, the EC50 is over 20 µM and the EC90 is over 20 µM. In series [8] (setting [13]), the CC50 was over 20 µM, the cc10 is over 20.0 µM, the perc_max_measured was found to be 103.266% and the perc_min_measured amounted to 80.243%.
In the case of `CNC(=O)c1cc2c(N[C@@H](c3ccc4c(c3)S(=O)(=O)CCC4)C(C)C)ncnc2[nH]1` (single isomer, unassigned) [ASAP-0012346], the papp_b_to_a_mean in series [1] (In vitro MDR1-MDCKII permeability, B to A, no inhibitor) is 0.72 ×10⁻⁶ cm/s. For the same molecule, in series [1] (setting [9]), the efflux_ratio is on record as 21.1. Besides, the perc_recovery_a_to_b_mean in series [1] (setting [10]) was 74.6% and 66.3%. The molecule further came in with a perc_recovery_b_to_a_mean in series [1] (In vitro MDR1-MDCKII permeability, recovery B to A, no inhibitor) of 68.8%. Further, the perc_recovery_a_to_b_inhibitor_mean in series [1] (MDR1-MDCKII, recovery A to B, with inhibitor Verapamil) worked out at 98.1%. In series [1] (MDR1-MDCKII, recovery B to A, with inhibitor Verapamil), the perc_recovery_b_to_a_inhibitor_mean was found to be 86.6%. In series [2], the solubility_mean turned out to be 397 µM (≈ 170 µg/mL). Besides, in series [3] (setting [11]), the clint is 23.0 µL/min/mg, the perc_remaining is reported as 69.0% and the t_half was 71.6 min. Moreover, in series [3] (setting [12]), the perc_remaining_no_cofactor is given as 97.0%. For the same molecule, in series [4], the logd amounted to 2.4. The same molecule gave a CC50 at 24 h in series [5] of over 20 µM. In series [6], the clint stood at 682.0 µL/min/mg, the perc_remaining is 0.0%, the t_half is recorded as 2.4 min and the perc_remaining_no_cofactor was 94.0%. Also, in series [7], the perc_max_measured was 104.869%, the perc_min_measured is 90.681%, the EC50 is over 20 µM and the EC90 is over 20 µM. In series [8] (setting [13]), the CC50 was over 20 µM, the cc10 was over 20.0 µM, the perc_max_measured came to 108.34% and the perc_min_measured was 94.319%.
For the molecule `CC(C)[C@H](Nc1ncnc2[nH]c(-c3cnn(C)c3C#N)cc12)c1ccc2c(c1)NC(=O)CO2` (single isomer, unassigned) [ASAP-0013255], in series [1] (setting [14]), the papp_a_to_b_mean is 1.22 ×10⁻⁶ cm/s. The perc_recovery_a_to_b_mean in series [1] (setting [15]) came to 51.1%. In addition, the solubility_mean in series [2] worked out at 26 µM (≈ 11.5 µg/mL). In series [3] (setting [11]), this molecule showed a clint of 81.0 µL/min/mg, a perc_remaining of 27.0% and a t_half of 20.7 min. Further, in series [3] (setting [12]), the perc_remaining_no_cofactor is given as 96.0%. Moreover, the logd in series [4] amounted to 4.4. Besides, in series [5], the CC50 at 24 h is over 20 µM. Also, in series [6], the clint turned out to be 115.0 µL/min/mg, the perc_remaining stood at 16.0%, the t_half was 14.6 min and the perc_remaining_no_cofactor is on record as 101.0%. For the same molecule, in series [7], the perc_max_measured was found to be 72.17%, the perc_min_measured amounted to 6.652%, the EC50 came out at 1.33 µM and the EC90 is over 20 µM. In addition, in series [8] (HeLa-ACE2 cytotoxicity), the CC50 was over 20 µM, the cc10 was over 20.0 µM, the perc_max_measured is given as 92.424% and the perc_min_measured stood at 38.485%.
With `CC(C)[C@@H](Nc1ncnc2[nH]c(-c3cnn(CCC(N)=O)c3)cc12)c1ccc2c(c1)OCCO2` [ASAP-0008482], the papp_a_to_b_mean in series [1] (setting [14]) stood at 1.46 ×10⁻⁶ cm/s. The perc_recovery_a_to_b_mean in series [1] (setting [15]) was found to be 88.9%. In series [2], this molecule registered a solubility_mean of 236 µM (≈ 109 µg/mL). Moreover, in series [3] (setting [11]), the clint came out at 62.0 µL/min/mg, the perc_remaining turned out to be 36.0% and the t_half amounted to 27.1 min. In addition, the perc_remaining_no_cofactor in series [3] (setting [16]) came out at 106.0%. Further, the logd in series [4] came out at 3.0. Also, in series [5], the CC50 at 24 h was over 20 µM. In series [6], the clint worked out at 99.0 µL/min/mg, the perc_remaining turned out to be 19.0%, the t_half is reported as 16.9 min and the perc_remaining_no_cofactor is 108.0%. Besides, in series [7], the perc_max_measured was 121.913% and 112.19%; the perc_min_measured was 97.771% and 96.19%; the concentration giving a half-maximal response (EC50) was over 20 µM; the EC90 was over 20 µM. For the same molecule, in series [8] (setting [13]), the CC50 is over 20 µM; the perc_max_measured was 111.916% and 92.58%; the perc_min_measured was 82.711% and 77.006%.
In turn, `CC(C)[C@@H](Nc1ncnc2[nH]c(-c3cnn(CC(=O)N(C)C)c3)cc12)c1ccc2c(c1)OCCO2` [ASAP-0008485] registered a papp_a_to_b_mean in series [1] (setting [14]) of 1.15 ×10⁻⁶ cm/s. The molecule further returned a perc_recovery_a_to_b_mean in series [1] (setting [15]) of 80.8%. The same molecule showed a solubility_mean in series [2] of 210 µM (≈ 99.9 µg/mL). In addition, in series [3] (setting [11]), the clint came to 59.0 µL/min/mg, the perc_remaining stood at 39.0% and the t_half was 28.1 min. Also, in series [3] (setting [16]), the perc_remaining_no_cofactor was determined as 98.0%. Moreover, in series [4], the logd came to 2.3. Moreover, the CC50 at 24 h in series [5] was over 20 µM. Also, in series [6], the clint was 142.0 µL/min/mg, the perc_remaining turned out to be 9.0%, the t_half is given as 11.8 min and the perc_remaining_no_cofactor was found to be 110.0%. In series [7], the perc_max_measured is 120.313% and 102.904%; the perc_min_measured is 86.961% and 72.697%; the EC50 is over 20 µM; the EC90 was over 20 µM. Besides, in series [8] (setting [13]), the CC50 was over 20 µM; the cc10 was over 20.0 µM; the perc_max_measured is 96.628% and 85.957%; the perc_min_measured was 73.752% and 75.897%.

What is called CC50 is the concentration giving 50% cytotoxicity. The EC50 is the midpoint of the concentration-response curve. A word on the EC90: it is the point of the concentration-response curve where the effect stands at 90%.
